Data on 34 molecules can be found in ChEMBL document CHEMBL5252673, “Development of thiazole-appended novel hydrazones as a new class of α-amylase inhibitors with anticancer assets: an in silico and in vitro approach” (RSC Med Chem, 2023).

Usually IC50 stands for the concentration needed to halve the response being measured.

Series [1] deals with A549. The series can be described thus: Antiproliferative activity against human A549 cells assessed as inhibition of cell growth incubated for 48 hrs by MTT assay. Type of series: functional, cell-based. Conditions: A549, 48 h. On the technique in general: Formazan colour is commonly taken as a measure of viable cells.
Series [2] has as its system HCT-116. The series is described as follows: Antiproliferative activity against human HCT-116 cells assessed as inhibition of cell growth incubated for 48 hrs by MTT assay. It is filed as functional, cell-based. Conditions: HCT-116, 48 h.
The test system of series [3] is MDA-MB-231. The series is described as follows: Antiproliferative activity against human MDA-MB-231 cells assessed as inhibition of cell growth incubated for 48 hrs by MTT assay. It is filed as functional, cell-based. Conditions: MDA-MB-231, 48 h.
The target in series [4] is T1, Alpha amylase (Homo sapiens, UniProt P0DUB6).
T1 sequence (P0DUB6 whole entry): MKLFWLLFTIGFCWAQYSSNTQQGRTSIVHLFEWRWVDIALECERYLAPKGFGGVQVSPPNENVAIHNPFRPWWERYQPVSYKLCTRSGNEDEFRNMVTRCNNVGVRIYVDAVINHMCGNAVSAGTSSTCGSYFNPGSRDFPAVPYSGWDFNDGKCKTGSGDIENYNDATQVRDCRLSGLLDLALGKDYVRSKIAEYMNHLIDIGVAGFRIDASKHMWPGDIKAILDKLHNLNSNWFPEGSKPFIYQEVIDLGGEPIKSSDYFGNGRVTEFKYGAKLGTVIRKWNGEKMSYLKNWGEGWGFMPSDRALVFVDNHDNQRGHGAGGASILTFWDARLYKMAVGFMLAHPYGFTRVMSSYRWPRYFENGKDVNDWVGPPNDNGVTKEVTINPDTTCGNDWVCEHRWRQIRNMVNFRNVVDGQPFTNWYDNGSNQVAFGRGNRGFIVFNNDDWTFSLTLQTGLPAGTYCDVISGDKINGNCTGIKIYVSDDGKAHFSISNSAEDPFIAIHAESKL
The series is described as follows: Inhibition of alpha-amylase (unknown origin).

Series [5] concerns A549. The series is described as follows: Induction of ROS in human A549 cells at sub IC50 concentration incubated for 24 hrs by H2DCFDA dye based fluorescence assay (reference value: 33.28%). Type of series: functional.
The target in series [6] is T1, Alpha amylase. The series is described as follows: Inhibition of alpha-amylase (unknown origin) using starch as substrate preincubated with substrate for 15 mins followed by compound addition and measured after 15 mins by UV-VIS spectrophotometric analysis.
The subject of series [7] is MCF-10A. The series is described as follows: Cytotoxicity against human MCF-10A assessed as reduction in cell viability upto 10 uM incubated for 48 hrs by MTT assay. Type of series: toxicity, cell-based.

Consider `COc1cc2c(c(OC)c1OC)-c1ccc(OC)c(=O)cc1[C@@H](NC(C)=O)CC2` [COLCHICINE], for which the IC50 in series [1] was found to be 1.09 µM; in series [2], 1.85 µM; in series [3], 1.98 µM.
Regarding `CC(=O)c1sc(N/N=C(/C)c2ccc(Cl)cc2)nc1C`, in series [4], the IC50 was 4.79 µM.
As for `O=C1CS/C(=N\N=C\c2ccc(OS(=O)(=O)c3ccccc3[N+](=O)[O-])cc2)N1`, in series [4], the IC50 was 42.8 µM.
Turning to `COc1cc(/C=N/NC(=O)c2csc(Nc3ccc([N+](=O)[O-])cc3)n2)ccc1O`, the Activity in series [5] is listed as 27.19%; in series [7] it was “Non-Toxic”. The IC50 in series [6] is 0.24 µM; in series [1], 1.99 µM; in series [2] it was 2.43 µM; in series [3], 4.98 µM.
With `O=C(N/N=C/c1cccc(F)c1)c1csc(Nc2ccccc2)n1`, the IC50 in series [6] worked out at 0.43 µM; in series [1], 8.42 µM; in series [2] it was 9.48 µM; in series [3], 7.77 µM.
On to `COc1cc(/C=N/NC(=O)c2csc(Nc3ccc([N+](=O)[O-])cc3)n2)cc(OC)c1OC`, for which the Activity is 22.34% in series [5] and “Non-Toxic” in series [7]. Besides, the IC50 worked out at 0.26 µM in series [6], 1.62 µM in series [1], 1.03 µM in series [2] and 2.67 µM in series [3].
Consider `COc1ccc(Nc2nc(C(=O)N/N=C/c3cccc(N)c3)cs2)cc1`, for which the half-maximal inhibitory concentration (IC50) in series [6] was 0.46 µM; in series [1] it was 10 µM; in series [2], 14.9 µM; in series [3], > 25 µM.
Molecule `COc1cc(-c2nc3ccccc3[nH]2)ccc1OCC(=O)Nc1ccccc1C` returned an IC50 in series [4] of 11 µM.
Consider `COc1ccc(Nc2nc(C(=O)N/N=C/c3ccc(Cl)cc3)cs2)cc1`, for which the IC50 came out at 0.41 µM in series [6], 10.3 µM in series [1], 12.2 µM in series [2] and 9.32 µM in series [3].
In the same order, the values of `O=C(N/N=C/c1ccc(O)c(O)c1)c1csc(Nc2ccc(Cl)cc2)n1` are 0.39 µM, 5.09 µM, 5.43 µM and 5.6 µM.
As for `O=C(N/N=C/c1ccccc1)c1csc(Nc2ccc([N+](=O)[O-])cc2)n1`, the IC50 came out at 0.37 µM in series [6], 11.2 µM in series [1], 7.32 µM in series [2] and 23.2 µM in series [3].
For `O=C(N/N=C/c1ccccc1)c1csc(Nc2ccccc2)n1`, in that order: 0.48 µM, 5.98 µM, 6.43 µM and > 25 µM.
On to `COc1cc(/C=N/NC(=O)c2csc(Nc3ccc(Cl)cc3)n2)ccc1O`, for which the half-maximal inhibitory concentration (IC50) in series [6] came out at 0.32 µM; in series [1], 2.16 µM; in series [2] it was 2.88 µM; in series [3], 6.55 µM.
The molecule `Cc1ccc([C@H]2C3CSCN3[C@@]3(C(=O)Nc4ccccc43)[C@]23N=C(c2ccccc2)OC3=O)cc1` (some centres not stated) registered an IC50 in series [4] of 1.76 µM.
As for `COc1ccc(Nc2nc(C(=O)N/N=C/c3ccc(O)c(OC)c3)cs2)cc1`, the IC50 was 0.43 µM in series [6], 3.98 µM in series [1], 4.99 µM in series [2] and 4.95 µM in series [3].
In the same order, the values of `COc1ccc(Nc2nc(C(=O)N/N=C/c3ccccc3)cs2)cc1` are 0.49 µM, 6.32 µM, 4.32 µM and > 25 µM.
In the same order, the values of `COc1ccc(/C=N/NC(=O)c2csc(Nc3ccc(Cl)cc3)n2)cc1` are 0.4 µM, 11.3 µM, 13.2 µM and 16.1 µM.
In the same order, the values of `COc1ccc(Nc2nc(C(=O)N/N=C/c3ccc(OC)c(OC)c3)cs2)cc1` are 0.43 µM, 2.97 µM, 2.31 µM and 3.22 µM.
In the case of `Cc1c(C(=O)N/N=C/c2ccc(O)c(O)c2)oc2ccccc12`, the IC50 in series [4] amounted to 1.24 µM.
As for `O=C(N/N=C/c1ccccc1)c1csc(Nc2ccc(Cl)cc2)n1`, the IC50 in series [6] came to 0.38 µM; in series [1] it was 6.49 µM; in series [2] it was 7.62 µM; in series [3], 3.89 µM.
Take `O=C(N/N=C/c1ccc(O)c(O)c1)c1csc(Nc2ccccc2)n1`: the IC50 in series [6] is 0.45 µM; in series [1], 9.86 µM; in series [2], 12.2 µM; in series [3], 14.9 µM.
Take `COc1ccc(Nc2nc(C(=O)N/N=C/c3ccc(O)cc3)cs2)cc1`: the IC50 in series [6] is 0.5 µM; in series [1], 7.99 µM; in series [2] it was 6.96 µM; in series [3], 9.87 µM.
For `COc1ccc(/C=N/NC(=O)c2csc(Nc3ccc(OC)cc3)n2)cc1`, the IC50 was found to be 0.47 µM in series [6], 7.88 µM in series [1], 7.83 µM in series [2] and 6.89 µM in series [3].
For `COc1cc(/C=N/NC(=O)c2csc(Nc3ccccc3)n2)ccc1O`, in that order: 0.41 µM, 12 µM, 10.1 µM and 14.5 µM.
`O=C(N/N=C/c1ccc(Cl)cc1)c1csc(Nc2ccc([N+](=O)[O-])cc2)n1`: the Activity is on record as 28.62% in series [5] and “Non-Toxic” in series [7]. Further, the 50% inhibitory concentration (IC50) was 0.29 µM in series [6], 2.63 µM in series [1], 2.96 µM in series [2] and 6.77 µM in series [3].
In the case of `C#Cc1cccc(Nc2ncnc3cc(OCCOC)c(OCCOC)cc23)c1` [ERLOTINIB], the IC50 in series [1] was determined as 1.23 µM; in series [2] it was 1.11 µM; in series [3] it was 2.54 µM.
Take `O=C(N/N=C/c1ccc(O)cc1)c1csc(Nc2ccccc2)n1`: the 50% inhibitory concentration (IC50) in series [6] is 0.45 µM; in series [1] it was 11.3 µM; in series [2], 4.44 µM; in series [3] it was 8.33 µM.
In the same order, the values of `O=C(N/N=C/c1ccc(O)cc1)c1csc(Nc2ccc(Cl)cc2)n1` are 0.41 µM, 7.43 µM, 5.67 µM and 15.7 µM.
`COc1ccc(/C=N/NC(=O)c2csc(Nc3ccc(O)cc3)n2)cc1OC`: the IC50 came to 0.39 µM in series [6], 4.98 µM in series [1], 5.99 µM in series [2] and 5.56 µM in series [3].
In the same order, the values of `COc1ccc(/C=N/NC(=O)c2csc(Nc3ccc([N+](=O)[O-])cc3)n2)cc1` are 0.32 µM, 8.97 µM, 4.65 µM and 14 µM.
Regarding `C/C(=N\NC(=O)c1csc(Nc2ccc(Cl)cc2)n1)c1ccccn1`, the IC50 in series [6] was 0.35 µM; in series [1] it was 20.2 µM; in series [2], 13.2 µM; in series [3], 13.2 µM.
As to `NNC(=O)c1csc(N/N=C/c2cccc(Br)c2)n1`, the IC50 in series [4] is 31 µg/mL.
Turning to `O=C(N/N=C/c1ccc(Cl)cc1)c1csc(Nc2ccc(Cl)cc2)n1`, the IC50 in series [6] is 0.39 µM; in series [1], 14 µM; in series [2], 17.2 µM; in series [3], > 25 µM.
For `O=C(N/N=C/c1ccc(F)cc1)c1csc(Nc2ccc([N+](=O)[O-])cc2)n1`, the half-maximal inhibitory concentration (IC50) is 0.34 µM in series [6], 5.43 µM in series [1], 7.66 µM in series [2] and 8.33 µM in series [3].
